test: gradient 5% acetonitrile 3 min, to 50% in 2 min, to 85% in 15 min, held 3 min, 100 µL/min; details: column: Zorbax Extend-C18 2.1 x 50 mm; eluents: water / acetonitrile, 0.1% formic acid
Procedure, shortened: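 Retention times of pure standards were taken from adduct peaks that were selected by computer and manually inspected. Over 3 months, mixtures of ~100 molecules were run by HPLC–quadrupole time-of-flight mass spectrometry in positive and negative ionization mode. The Zorbax Extend-C18 column (2.1 × 50 mm, 1.8 μm) ran at 100 μL/min in water and acetonitrile, each containing 0.1% formic acid, with 40 μL dead volume and 900 μL dwell volume.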

SMILES	RP-LC retention time
CCN(CC)Cc1cc2[nH]c3c4ccc(Cl)cc4ncc3c2cc1OC	747 s
CCN1C(=O)C(CC(=O)NCCCN(C)C)Sc2ncccc21 (centres undefined)	559 s
Cc1ccc(C)c(CNS(=O)(=O)c2cc(-c3csc(C)n3)sc2C)c1	1100 s
CCOc1ccc2nc(Nc3nc(C)cc(C(F)(F)F)n3)nc(C)c2c1	753 s
CCOC(=O)c1cnc2nc(C)ccc2c1Nc1cccc(Cl)c1	752 s
CC(C)n1nnc2cc(C(=O)N(C)C)ccc21	648 s
COC(=O)c1cc2c(=O)n(-c3cc(Cl)cc(Cl)c3)ccc2nc1C	1010 s
Cc1ccn(CC(=O)NC2CCN(c3ccc(=O)n(CC4CC4)n3)C2)n1 (centres undefined)	631 s
Oc1c(C(Nc2nccs2)c2ccc(F)cc2)ccc2cccnc12 (centres undefined)	654 s
COc1ccc(N2CC(c3nc(-c4ccccc4)no3)CC2=O)cc1OC (centres undefined)	669 s
COc1ccc(-c2nc(-c3cn(Cc4ccc(F)cc4)nn3)no2)c(OC)c1	940 s
Cn1cccc1CN(Cc1cccs1)C(=O)Cn1c(=O)oc2ccccc21	899 s
O=C(c1ccc(F)cc1Cl)N1CCN(C(=O)c2nnn3c2COC(c2ccccc2)C3)CC1 (centres undefined)	887 s
CN(C)CCNC(=O)c1ccc(CS(=O)(=O)c2c(Cl)cccc2Cl)o1	595 s
CCOC(=O)c1noc2ncnc(NCCc3ccc(OCC)cc3)c12	1060 s
CCCn1c(=O)sc2cc(S(=O)(=O)N3CCC(C(=O)NCc4ccco4)CC3)ccc21	848 s
Cn1nc(-c2nnc(-c3ccccc3)o2)c2c1CCN(S(=O)(=O)c1ccc(F)cc1F)C2	955 s
CNc1nc(Nc2ccc(OC)cc2)nc2ccccc12	641 s
CCNC(=O)NCCc1cn(CC(C)C)c2ncccc12	631 s
CCc1nc(-c2ccc3c(c2)CCN3C(=O)Cc2ccc(OC)c(OC)c2)no1	923 s
CCOc1ccc(/C=C/C(=O)Nc2nc(-c3ccc4c(c3)NC(=O)C(C)O4)cs2)cc1OC (centres undefined)	927 s
O=C1COc2cc(S(=O)(=O)N3CCCC3C(=O)NC3CCCCCC3)c(Cl)cc2N1 (centres undefined)	819 s
CCCCC(=O)O[C@]1(C(=O)CO)CC[C@H]2[C@@H]3CCC4=CC(=O)CC[C@]4(C)[C@H]3[C@@H](O)C[C@@]21C	1020 s
Cc1ccc(NC(=O)Cn2c(=O)n(-c3ccccc3)c(=O)c3c2cc(C)n3C)cc1	827 s
O=S(=O)(Nc1cccc(-c2nc(-c3cccc(Br)c3)co2)c1)c1cccs1	1230 s

SMILES	RP-LC retention time
COc1ccc(N2CC(c3nc(-c4cccc(Cl)c4)no3)CC2=O)cc1 (centres undefined)	973 s
Cc1ccc(Nc2c(-c3ccc(O)cc3)nc3ccc(Cl)cn23)cc1	696 s
CCOC(=O)c1ccc2nc(C(F)(F)F)nc(NCCCN3CCCC3=O)c2c1	876 s
N#Cc1cnc2ccc(F)cc2c1N1CCC(C(=O)Nc2ccc3c(c2)OCCO3)CC1	804 s
COCCNC(=O)c1cc2c(s1)CCN(C(C)=O)C2	588 s
COc1cc(NC(=O)N2CCC(CC(=O)N3CCN(c4ccccn4)CC3)CC2)cc(OC)c1OC	576 s
O=S(=O)(c1ccc(-c2nnc(C3CC3)o2)o1)N1CCCC1	771 s
Cc1cc(N2CCN(C)CC2)nc2ccc(NC(=S)NCc3ccc4c(c3)OCO4)cc12	586 s
O=C1CC(c2noc(-c3ccc(-c4ccccc4)cc3)n2)CN1c1ccc(F)cc1 (centres undefined)	1200 s
CCOc1cccc(-c2noc(Cn3ccn4nc(-c5ccc(C)c(C)c5)cc4c3=O)n2)c1	1220 s
CN(C)C(=O)c1csc(S(=O)(=O)N2CCC(C(=O)N3CCN(c4ccccc4)CC3)CC2)c1	768 s
CCCc1nc(-c2cc3cccc(C)c3nc2NCCc2ccc(S(N)(=O)=O)cc2)no1	1300 s
O=C(CSc1nnc(CCc2nc3ccccc3[nH]2)o1)Nc1nccs1	556 s
O=C(NCc1cccs1)C(=O)NCC1(c2ccc(F)cc2)CC1	727 s
O=C(Cc1csc2nc(-c3cccc(Cl)c3)cn12)Nc1ccc(F)cc1F	942 s
Nc1nc(-c2nn(Cc3ccccc3F)c3ncccc23)ncc1C1CC1	720 s
CCOc1ccc(-c2noc(Cn3c(=O)n(C(C)CC)c(=O)c4ccccc43)n2)cc1 (centres undefined)	1170 s
CCOC(=O)C1C(=O)C=C(c2cccc(NS(C)(=O)=O)c2)CC1c1cccs1 (centres undefined)	822 s
COc1ccc(C(C)NS(=O)(=O)c2cc(-c3nc(C(C)(C)C)cs3)cs2)cc1 (centres undefined)	1240 s
CCC1Oc2ccc(S(=O)(=O)N3CCC(C(=O)NCc4ccc(F)cc4)CC3)cc2NC1=O (centres undefined)	922 s
CC1Oc2ccc(-c3csc(NC(=O)c4ccc(F)cc4)n3)cc2NC1=O (centres undefined)	879 s
COc1ccc(CCn2nnnc2C2(c3ccc(C)cc3)CC2)cc1	1150 s
COc1ccc(-c2nnc(SCc3ccc(C#N)cc3)o2)cc1	948 s
CC(NC(=O)Cn1cc(C(=O)c2ccco2)c2ccccc21)c1ccc2c(c1)OCCCO2 (centres undefined)	837 s

The next lines start with the values.

RP-LC retention time	SMILES
911 s	Cc1ccc(CCNC(=O)C2CCCN(C(=O)c3cc4sccc4n3C)C2)cc1 (centres undefined)
541 s	COc1ccc(OC)c(CNC(=O)c2cn3ccc(C)cc3n2)c1
605 s	c1ccc(N2CCN(Cc3csc4c3CCCC4)CC2)nc1
675 s	Cc1cc2[nH]c(C(=O)Nc3c(F)cccc3F)c(CN3CCOCC3)c2s1
1040 s	CC(C)c1cc(C(=O)Nc2ccc(F)c(F)c2)no1
788 s	CCn1cc(CCNC(=O)Nc2cccc(Cl)c2)c2cccnc21
731 s	CC(C(=O)NC1CCN(Cc2ccccc2)CC1)n1c(=O)c(C(F)(F)F)nc2ccccc21 (centres undefined)
742 s	Cc1nnc(NC(=O)COc2ccc3ccccc3c2)s1
732 s	COCCCNC(=O)c1ccc2c(c1)N(Cc1ccccc1)C(=O)CO2
740 s	COc1ccc(-c2cn3cccnc3n2)cc1NC(=O)c1cccc(Cl)c1
574 s	O=C(c1ccoc1)N1CCCC(Nc2ncnc3c2CCC3)C1 (centres undefined)
795 s	COc1ccc(NC(=O)C2CCN(C(=O)C3Sc4ccccc4NC3=O)CC2)cc1Cl (centres undefined)
874 s	O=C(c1ccc(Cl)cc1)N1CCCC(c2nnc(-c3ccccc3)o2)C1 (centres undefined)
782 s	Cc1ccc2c(c1)N(C(=O)Cn1cnc3nc4c(cc3c1=O)CCCC4)CCO2
977 s	Cc1ccc(-c2cc(C(=O)NC(C)C)n(C)c2)cc1
619 s	COc1ccccc1N1CCN(c2cc(C(=O)O)c3cc(NS(C)(=O)=O)ccc3n2)CC1
586 s	Cc1ccccc1NC(=O)c1cn2c(n1)CCCC2
577 s	O=C(NCc1ccc2c(c1)OCO2)C1CCN(CCc2c[nH]c3ncccc23)CC1
1050 s	Cc1cc(C)c(S(=O)(=O)N2CCC(C(=O)NCc3csc(-c4cccs4)n3)CC2)cc1C
660 s	COc1ccc(C(O)CN2CCN(c3ccccc3F)CC2)cc1 (centres undefined)

RP-LC retention time	SMILES
611 s	CCCNC(=O)C1CCN(c2ccc(SCC(=O)Nc3ccc(OC)cc3)nn2)CC1
963 s	Cc1cc(F)ccc1NS(=O)(=O)c1ccc(-c2nnc(C3CCC3)o2)o1
1100 s	C[C@H]1CN(C(=O)Cc2c(F)cccc2Cl)C[C@@H]1c1nc(-c2ccccc2)no1
902 s	O=C(CCC1CCCN(S(=O)(=O)c2ccccc2)C1)N1CCCCC1 (centres undefined)
826 s	CN(CCCNC(=O)C1CCCN(c2ncc(-c3ccccc3)cn2)C1)c1ccccc1 (centres undefined)
570 s	CCNC(=O)N1CCC(OC2CCN(Cc3ccccc3)CC2)CC1
944 s	CCn1cc(C(=O)NCc2ccc(C)cc2)c(S(=O)(=O)N2CCSCC2)n1
785 s	COc1ccc(S(=O)(=O)N2CCCC(C(=O)NCC3CCCO3)C2)cc1Cl (centres undefined)
900 s	Cc1cc(N2CCC(NC(=O)Nc3ccc(C)c(F)c3)C2=O)ccc1F (centres undefined)
1040 s	Cc1ccccc1-c1nnc(CSc2nnc(NC(=O)c3cccc(Cl)c3)s2)o1
1060 s	Cc1cccc(Sc2nccnc2N2CCCC(C(=O)NCc3ccc(C)o3)C2)c1 (centres undefined)
726 s	CCn1ccc2c(cc(C(=O)Nc3ccc(F)cc3C)n2C)c1=O
805 s	COC(=O)c1nc(NC(=O)Cn2nc3c(cc2=O)CCCC3)sc1C(C)C
851 s	O=C(NC1CCCCC1)c1ccc2ccnc(N3CCN(c4ccccc4)CC3)c2c1
1050 s	CCc1ccccc1NC(=O)CSc1nnc2c3cc(-c4ccc(C)c(C)c4)nn3ccn12
666 s	CCCNC(=O)C1CCN(c2ccc(SCC(=O)Nc3ccccc3C(=O)OC)nn2)CC1
875 s	O=C(NCCCN1CCCCCC1)C(c1ccccc1)C1CCCCC1 (centres undefined)
739 s	CCOc1ccccc1CNC(=O)C1CCN(S(=O)(=O)c2cn(CC)cn2)CC1
614 s	CC1CCN(CCNC(=O)Cn2c(=O)n(-c3ccc(F)cc3)c3ncccc32)CC1
726 s	O=C(NCCc1nc2cccnc2n1Cc1ccccc1)Nc1ccc2c(c1)OCO2

Source: the METLIN SMRT retention time set (Domingo-Almenara et al. 2019)
